This assay addresses T1, h-TRAAK (Homo sapiens, UniProt Q9NYG8).
T1 construct: expressed in transfected cells; host or cells: HEK 293
T1 sequence (Q9NYG8 1-393): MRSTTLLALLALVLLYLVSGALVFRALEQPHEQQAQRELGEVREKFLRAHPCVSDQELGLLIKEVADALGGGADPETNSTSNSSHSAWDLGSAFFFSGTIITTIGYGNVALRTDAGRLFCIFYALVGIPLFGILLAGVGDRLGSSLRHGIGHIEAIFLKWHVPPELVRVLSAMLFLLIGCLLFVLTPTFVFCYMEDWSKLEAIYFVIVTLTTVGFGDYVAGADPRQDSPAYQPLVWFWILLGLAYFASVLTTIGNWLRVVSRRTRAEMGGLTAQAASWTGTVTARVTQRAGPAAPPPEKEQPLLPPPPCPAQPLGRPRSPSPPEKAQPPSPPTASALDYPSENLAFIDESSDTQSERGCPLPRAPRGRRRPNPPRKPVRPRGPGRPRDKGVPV
Briefly: Whole cell patch clamp recordings in HEK 293 cells transiently transfected with h-TRAAK. In kind it is cell-based. An excerpt: Electrophysiological Recordings in HEK293 Cells
For whole cell patch clamp recordings cells were placed on the stage of an inverted microscope and continuously superfused with a solution containing, in mM: NaCl 150, KCl 5, HEPES 10, CaCl2 1 and MgCl2 3; pH with NaOH. The patch pipette solution contained in mM: KCl 150, HEPES 10, MgCl2 3 and EGTA 5; pH7.2 with KOH. When cells were voltage clamped at a test potential of −80 mV depolarising pulses elicited rapidly activating, non-inactivating outward currents. At a test potential of +10 mV these currents were considerably greater in amplitude, 300.4 pA±92.9 (n=5) than those recorded from untransfected wild type HEK 293 cells, 94.8 pA +12.6 (n=15). h-TRAAK-mediated currents were potentiated by arachidonic acid over a voltage range from −140 to +60 mV.

`CCCCC/C=C\C/C=C\C/C=C\C/C=C\CCCC(=O)O` [arachidonic acid]: for the setting “10 μM arachidonic acid, test potential of +10 mV”, the “fold increase in h-TRAAK-mediated current” value came out at 7.9 ±3.0 fold. For the setting “voltage range from −140 to +60 mV”, the “effect on h-TRAAK-mediated currents” value is given as “potentiated”.

(Values after patent US6426197B1, “Polynucleotides encoding a human potassium channel” (SmithKline Beecham, P.L.C., priority 1998, dated 2002).)
